According to patent US8652791B2, “Method of classifying human subjects having adolescent idiopathic scoliosis (AIS) and method for screening for a compound useful in the treatment of AIS and related syndromes causing spinal deformities” (Hopital Sainte-Justine, priority 2002, dated 2014):
“Also recorded” adds a separate entry of the source. Each block holds one compound with its values, some of them ahead of it.

What was measured:
[1] = test system: Gi proteins (inhibition of adenylyl cyclase activity in osteoblasts); test: cAMP accumulation assay in osteoblasts, Gpp(NH)p as agonist; type: cell-based, human; conditions: forskolin-stimulated
Procedure: The functionality of Gi proteins was assessed by investigating their ability to inhibit adenylyl cyclase activity in osteoblasts. To obtain inhibition curve of cAMP production the non-hydrolysable analogue of GTP, Gpp(NH)p (guanilyl 5′-imidophosphate, Sigma™) was added to the forskolin-containing samples in concentrations ranging from 10 nM to 100 μM. The cAMP content was determined as described above in similar assays with melatonin.
The values reported in FIG. 8 were detected after the administration of 10^−9M Gpp(NH)p, a GTP non-hydrolysable analogue.

[2] = test system: forskolin-stimulated adenylyl cyclase activity in osteoblasts; test: cAMP accumulation assay in osteoblasts, melatonin as agonist; type: cell-based, human
Procedure: Osteoblasts from patients with AIS and control subjects were seeded in quadruplet on 24-wells plate (1×10^5 cells/well) and incubated either with the vehicle alone, dimethyl sulphoxide (DMSO, Sigma™, Oakville, ON, Canada) or the diterpene forskolin (10^−5M, Sigma™) to stimulate the cAMP formation. Inhibition curves of cAMP production were generated by adding melatonin to the forskolin-containing samples in concentrations ranging from 10^−11M to 10^−5M in a final volume of 1 ml of DMEM media with 0.5% bovine serum albumin (BSA, Sigma™). After a 30-minute incubation at 37° C., the cells were lysed and the sample centrifuged at 4° C. The cAMP content was determined in 200 μl aliquot of the supernatant using an enzyme immunoassay kit (Amersham-Pharmacia Biosciences, Mississauga, ON, Canada). All assays were performed in duplicate.
A method of screening of the present invention was performed and identified estrogen as one compound able to modulate the melatonin-signaling pathway impairment in AIS patients. Experiments were performed showing the effect of increasing concentrations of melatonin (10^−11 to 10^−5M) used as known agonist of melatonin-signaling pathway on forskolin-stimulated adenylyl cyclase activity in osteoblasts from two patients with AIS (group 3 see Table 2) treated or not with a physiological dose of estradiol (10^−10M). Results illustrated in panels A and B of FIG. 19 correspond to AIS patient numbered 13 and 29 in Table 1, respectively.

[3] = test system: Gi proteins coupled to MT1 and MT2 receptors; test: Co-immunoprecipitation of Gi proteins coupled to melatonin receptors and their phosphorylation state; type: cell-based, human; conditions: for phosphorylated forms of Gi3 and Gi2 in MT1 or MT2 immune complexes: overnight treatment of the cells
Procedure: Co-immunoprecipitation assays were performed with anti-MT1 and anti-MT2 specific antibodies (kind gifts of Dr Debora Angeloni and Prof Franco Fraschini, University of Milan, Italy) to identify Gi proteins coupled to individual melatonin receptor in human MG-63 osteoblasts (FIG. 9).
The specific antibodies were incubated with membrane fractions purified from osteoblasts untreated and treated with melatonin (10^−9M), genistein or herbimycin (1 μM, tyrosine kinase inhibitors, Sigma™) or sodium orthovanadate, Na3VO4, (1 mM, tyrosine phosphatase inhibitor, Sigma™) for at least 16 h. Presence of coupled Gi proteins in respective immune-complexes were determined by SDS-PAGE and Western blot with specific Gi antibodies (Santa Cruz Biotechnology Inc., Santa Cruz, Calif., USA) and phosphorylation status of these coupled Gi proteins were determined using anti-phosphoserine, phosphothreonine and phosphotyrosine antibodies (Sigma™) using the same membrane after stripping. Purified recombinant Gi proteins were used as control for antibody specificity.

human osteoclasts = test: Osteoclast pit resorption assay on bone matrix; type: cell-based
Procedure: The inhibitory effect of melatonin on osteoclasts activity was performed using normal human osteoclasts derived from peripheral blood. Mel, melatonin; luz, luzindole, a specific MT2 antagonist;
Other functional assays with melatonin using osteoclasts derived from monocytes/lymphocytes fraction isolated from peripheral blood of AIS patients and control subjects are performed. Primary osteoclasts are derived from the peripheral blood of patients and non-scoliotic subjects using 10 ml of blood or less. Anticoagulant-treated blood is layered on the Ficoll-Paque™ solution and centrifuged for a short period of time. Differential migration during centrifugation results in the formation of layers containing different blood cells. Because of their lower density, the lymphocytes are found at the interface between the plasma and the Ficoll-Paque™ with other slowly sedimenting particles (platelet and monocytes). The lymphocytes are then recovered from the interface and subjected to a short washing step with a balanced salt solution to remove any platelets, Ficoll-Paque™ and plasma. The cells are then counted and seeded at high density (1×10^6 cells per cm^2) onto artificial bone or dentin matrix in α-MEM with 10% FBS and antibiotics. After a few days, cells that remain adherent will start to differentiate into osteoclasts, forming large multinucleate cells after 15-20 days.

[4] = test system: forskolin-stimulated adenylyl cyclase activity in myoblasts; test: cAMP accumulation assay in skeletal myoblasts, melatonin as agonist; type: cell-based, human; conditions: myoblasts from AIS patients
Procedure: The functionality of melatonin signaling is assessed by investigating the ability of Gi proteins to inhibit stimulated adenylyl cyclase activity in intact skeletal myoblasts. Cells prepared from patients with AIS and control subjects are seeded in quadruplet on 24-wells plate (1×10^5 cells/well) and incubated either with dimethyl sulphoxide (DMSO, Sigma™) or forskolin (10^−5M, Sigma™) to stimulate the cAMP formation. To obtain the inhibition curve of cAMP production, melatonin is added to the forskolin-containing samples in concentrations ranging from 10^−11M to 10^−5M in a final volume of 1 ml of DMEM media with 0.5% bovine serum albumin (BSA). After a 30-minute incubation at 37° C., the cells are lysed and the sample centrifuged at 4° C. The cAMP content is determined in 200 μl aliquot of the supernatant using an enzyme immunoassay kit (Amersham-Pharmacia Biosciences).

[5] = test system: scoliosis formation after pinealectomy; conditions: treatment after pinealectomy in both animal models (chicken, bipedal rats); cited from earlier work
[6] = test system: MT1 receptor expression in MC3T3-E1 cells; test: RT-PCR expression analysis of melatonin receptors; type: cell-based; conditions: melatonin 10^-7M
Procedure: RT-PCR were performed with specific primers corresponding to melatonin receptor subtypes, MT1 (panel A, FIG. 7), MT2 (panel B, FIG. 7) and OPN (panel C, FIG. 7) using 2 μg of RNA isolated every 2 h during a 24 h cycle from MC3T3-E1 cells treated (+) or not (−) with melatonin (10^−7M). […] PCR products were separated on a 1.5% agarose gel and visualized by ethidium bromide staining.

human osteoblasts = test: Osteoblast proliferation assay ([3H]-thymidine incorporation); type: cell-based; conditions: melatonin 10^-9M
Procedure: An assay was performed to compare the proliferation of osteoblasts of normal subjects with that of scoliotic patients. […]

[7] = Bone mineral density (DEXA) in pinealectomized chicken; type: in vivo; conditions: melatonin 3 mg/kg/day ip
Procedure: Treatment with melatonin, 3 mg/kg/day ip, increased BMD in treated animals. […]

[8] = test system: osteocalcin (OC), osteopontin (OPN) and bone sialoprotein (BSP); test: Expression analysis of osteoblast terminal differentiation markers; type: cell-based; conditions: osteoblasts in vitro

inhibitory effect on cAMP levels ([1]; osteoblasts from a majority of AIS patients): no inhibitory effect | effect on cAMP levels ([1]; osteoblasts from control subjects): reduced cAMP levels
Compound: Nc1nc2c(ncn2[C@@H]2O[C@H](COP(=O)(O)OP(=O)(O)NP(=O)(O)O)[C@@H](O)[C@H]2O)c(=O)[nH]1 [Gpp(NH)p, guanilyl 5′-imidophosphate]

Compound: C[C@]12CC[C@@H]3c4ccc(O)cc4CC[C@H]3[C@@H]1CC[C@@H]2O [estradiol]
effect on the inhibitory effect of melatonin on forskolin-stimulated adenylyl cyclase activity ([2]; osteoblasts from two AIS patients (group 3), estradiol 10^-10M, melatonin 10^-11 to 10^-5M): further block the inhibitory effect of melatonin

Compound: O=c1c(-c2ccc(O)cc2)coc2cc(O)cc(O)c12 [genistein]
phosphorylated forms of Gi3 and Gi2 in MT1 or MT2 immune complexes [3]: completely abolished the presence of both phosphorylated forms

Compound: CC(=O)NCCc1c(Cc2ccccc2)[nH]c2ccccc12 [luzindole]
effect on the inhibition of osteoclasts resorption activity by melatonin (human osteoclasts; normal human osteoclasts, luzindole added with melatonin): prevents or reduces the inhibitory effect of melatonin

binding of Gi3 and Gi2 proteins to MT2 receptors ([3]; osteoblast purified membranes, in presence of melatonin): increased | effect on cAMP accumulation ([2]; AIS group 1 osteoblasts): increased cAMP accumulation | response toward melatonin treatment (cAMP) ([2]; AIS group 3 osteoblasts): weak response | inhibitory effects on adenylyl cyclase activity ([2]; AIS group 3 osteoblasts, higher doses of melatonin): some significant inhibitory effects
Compound: COc1ccc2[nH]cc(CCNC(C)=O)c2c1 [melatonin]
inhibition of cAMP accumulation induced by forskolin ([4]; melatonin 10^-11 to 10^-5M, preliminary tests): incapacity of melatonin to inhibit cAMP accumulation | inhibition of cAMP accumulation induced by forskolin ([4]; supra pharmacological dose 10^-5M): able in 2 cases to inhibit cAMP accumulation | formation of scoliosis after pinealectomy [5]: prevented the formation of scoliosis | MT1 receptor subtype expression (RT-PCR) [6]: down regulated | osteoclasts resorption activity (human osteoclasts; normal human osteoclasts derived from peripheral blood, melatonin 10^-9M to 10^-7M): inhibits osteoclasts resorption activity | resorbing activity of osteoclasts (human osteoclasts; osteoclasts isolated from animals with AIS or related syndrome, reasonably predicted): does not affect resorbing activity | osteoblast growth rate ([3H]-thymidine incorporation) (human osteoblasts; normal osteoblasts): increases linearly | osteoblast growth rate ([3H]-thymidine incorporation) (human osteoblasts; osteoblasts from scoliotic patients): did not respond | phosphorylated forms of Gi3 and Gi2 in MT1 or MT2 immune complexes [3]: completely abolished the presence of both phosphorylated forms | bone mineral density (BMD) [7]: increased BMD | inhibition of cAMP accumulation ([2]; AIS group 2 osteoblasts, even at 10^-7M or 10^-5M melatonin): no significant inhibition; also recorded: did not respond | inhibition of cAMP accumulation ([2]; AIS group 3 osteoblasts, physiological dose 10^-9M): no significant inhibition | reduction of cAMP levels (inhibition of forskolin-stimulated adenylyl cyclase activity) ([2]; osteoblasts from control subjects, forskolin 10^-5M, melatonin 10^-11M to 10^-5M, dose-dependent): 60-70% | inhibition of forskolin-stimulated adenylyl cyclase activity ([2]; osteoblasts from patients with AIS): lack of inhibition | expression of osteoblast terminal differentiation markers OC, OPN and BSP [8]: up-regulates
